Entries after “also recorded” stand apart in the source; their conditions may differ.
What was measured:
rabbits [1] = settings: rabbit, in vivo
Description: A 0.5% w/v peptide CardioMatrix solution was extracted in NaCl and CSO at a ratio of 0.2 gm per 1.0 mL at 70±2° C. for 24 hours. […] Three rabbits were injected intracutaneously, using one side of the animal for the test article extracts and the other side for the control extracts, at 0.2 mL per site. The injected sites were examined at 24, 48, and 72 hours post inoculation for gross evidence of tissue reaction such as erythema, edema, and necrosis. A Primary Irritation Index of 0.5 or less will be considered a negligible irritant, where 0.5 to <2 are slight irritants, 2 to <5 are moderate irritants, and >5 are severe irritants.

[2] = tested on: L929 mouse fibroblast cell culture; assay: Cytotoxicity: Agar Diffusion ISO 10993-5; format: cell-based; settings: L929 mouse fibroblast monolayer
Source text: (§1) Standard in vitro toxicology studies, including EN/ISO tests for cytotoxicity and hemocompatibility, have been completed. The tests below were completed at a FDA certified toxicology testing company (Toxikon Corp, Bedford, Mass.) using established standards of measure on a CardioMatrix material (Tables 3 and 4). The CardioMatrix solution tested in this example comprised various concentrations of CardioMatrix powder in substantially sucrose free aqueous solution.
The Agar Diffusion test (ISO 10993-5) measures a material's effect on cell cultures, which are extremely sensitive to minute quantities of leachable chemicals and readily display characteristic signs of toxicity in the presence of potentially harmful leachables. The biological reactivity of a mammalian monolayer, L929 mouse fibroblast cell culture, in response to the test article was determined as “no-reactivity” in tests.

[3] = set-up: species or system Sprague Dawley rats; settings: rat, in vivo
Source text: To measure the local and whole animal distribution a 14C, carbon radiolabeled version of a Cardiomatrix was generated. The radiolabeled version was internally labeled at the third alanine site (Acetyl-(RADA)-(R-[^14C(U)-Ala]-D-A)-(RADA)2-CONH2) as opposed to a labeled acetyl group which could be cleaved off, in order to better characterize the adsorption, degradation, metabolism and excretion (ADME) of the CardioMatrix material in vivo. The radiolabeled material was then implanted into Sprague Dawley rats in a femur defect model. Urine and stool samples were collected and the radioactivity was counted.

[4] = tested on: rabbit blood (red blood cells); assay: Hemolysis: Direct Contact (ISO 10993-4); format: cell-based; settings: rabbit blood in direct contact, triplicate
Source text: as §1
The hemolysis test (Direct Contact, ISO-10993-4) measures the ability of a material to cause red blood cells to rupture. This test is derived from well-established NIH protocols and is performed in triplicate. This test uses rabbit blood in direct contact with the test material and the degree of hemolysis is measured spectrophotometrically.

rabbits [5] = assay: Rabbit Pyrogenicity (ISO-10993-11); format: in vivo; settings: intravenous injection of extract at 10 mL/kg
Description: The purpose of the test was to detect the risk of a patient to a febrile reaction as a result of the administration of the test article extract. The test article was prepared by mixing 9 ml of the test article with 9 mL of 0.9% USP Sodium Chloride for Injection (NaCl) and the resulting gel extracted at a ration of 0.2 gm per 1.0 mL. The test article extract was administered by intravenous injection at 10 mL/kg. The rectal temperatures of the injected rabbits were compared with the temperature of a control rabbit similarly injected with 0.9% USP Sodium Chloride for Injection (NaCl). The base-line temperatures of the rabbits, determined no more than 30 minutes prior to injection of the test article extract, were used to exclude rabbits whose body temperatures vary by more than 1° C. from each other and whose temperatures are greater than 39.8° C. Body temperatures were recorded at 30 minute intervals between 1 and 3 hours subsequent to injection.

[6] = tested on: paravertebral muscle of New Zealand white rabbits; settings: in vivo
Source text: This test assesses the local effects of material on contact with living tissue. Test article was implanted into paravertebral muscle of 3 New Zealand white rabbits, with negative control (GelFoam) implanted in the contralateral muscle of each animal. Healing was allowed for 2 weeks. Animals were sacrificed and implants excised. Excised implants were examined macroscopically with a magnifying lens and fixed in formalin. Histologic slides of hematoxylin and eosin (H&E) and Mason's Trichrome stained sections were prepared, studied microscopically by a board-certified veterinary pathologist, and evaluated on a scale of 0-3. CardioMatrix implants retained the initial implant volume, collagen fibers, and vascularization of the injection site.

[7] = tested on: prothrombin coagulation time of human plasma; assay: Prothrombin Time Assay, Human Plasma (ISO 10993-4)
Source text: as §1
Prothrombin Time (Human Plasma, ISO 10993-4) measures the effect of a test article extract on human blood coagulation time. This assay has become a suitable clinical means of determining the presence and functioning ability of prothrombin in the process of coagulation.

Q: For `CC(=O)N[C@@H](CCCNC(=N)N)C(=O)N[C@@H](C)C(=O)N[C@@H](CC(=O)O)C(=O)N[C@@H](C)C(=O)N[C@@H](CCCNC(=N)N)C(=O)N[C@@H](C)C(=O)N[C@@H](CC(=O)O)C(=O)N[C@@H](C)C(=O)N[C@@H](CCCNC(=N)N)C(=O)N[C@@H](C)C(=O)N[C@@H](CC(=O)O)C(=O)N[C@@H](C)C(=O)N[C@@H](CCCNC(=N)N)C(=O)N[C@@H](C)C(=O)N[C@@H](CC(=O)O)C(=O)N[C@@H](C)C(N)=O` [CardioMatrix, RADARADARADARADA], which “Irritant class by Primary Irritation Index” value (rabbits [1]) is on record?
A: “Negligible”

Q: And the “Signs of erythema or edema at injected sites” value (rabbits [1])?
A: did not exhibit signs of erythema or edema

Q: And the “Cytotoxicity: Agar Diffusion, biological reactivity” value [2]?
A: no-reactivity; also recorded: Non-cytotoxic

Q: What about the “Time until degraded and excreted” value [3] of the same compound?
A: ≤ 28 days

Q: And the “Hemolysis: Direct Contact” value [4]?
A: Non-hemolytic

Q: And the “Rabbit pyrogenicity, febrile reaction” value (rabbits [5])?
A: None of the animals injected with the test article extract exhibited signs of pyrogenic response; also recorded: No effect on animals; also recorded: No febrile reaction from any animal

Q: And the “Rabbit Muscle Implant toxicity score” value [6]?
A: 0.13

Q: What about the “Initiation of coagulation cascades (hemocompatibility tests)” value ([7]; direct contact with blood and plasma) of the same compound?
A: do not initiate coagulation cascades

Q: What about the “Effect on prothrombin coagulation time” value ([7]; test article extract, human plasma) of the same compound?
A: did not have an adverse effect

From patent publication US9012404B2, “Compositions and methods for cardiac tissue protection and regeneration” (3D Matrix, Inc., priority 2006, dated 2015)
